From BindingDB's records for doi:10.1021/acs.jmedchem.6b01785 (Chinese Academy of Sciences, 2017)

Experiments:
[1] = Inhibition of DOT1L in human MV4-11 cells assessed as reduction in cell viability after 72 hrs by alamar blue assay
[2] = Inhibition of DOT1L in human THP-1 cells assessed as reduction in cell viability after 72 hrs by alamar blue assay
[3] = Inhibition of DOT1L in human KOPN8 cells assessed as reduction in cell viability after 72 hrs by alamar blue assay

SMILES | IC50 [1] | IC50 [2] | IC50 [3]
Fc1cccc(-c2nn3c(Cn4nnc5ccccc54)nnc3s2)c1 | 21.9 µM | 55.8 µM | 28.1 µM
Cc1ccc(-c2nn3c(Cn4cnc5ccccc54)nnc3s2)cc1C | 64 µM | – | –
Brc1cccc(-c2nn3c(Cn4cnc5ccccc54)nnc3s2)c1 | 26.8 µM | – | –
CC(C)(C)c1ccc(-c2nn3c(Cn4nnc5ccccc54)nnc3s2)cc1 | 13.1 µM | – | –
c1ccc2c(c1)nnn2Cc1nnc2sc(-c3ccc4c(c3)OCO4)nn12 | 6.75 µM | – | –
COc1cccc(-c2nn3c(Cn4nnc5ccccc54)nnc3s2)c1 | 64.2 µM | – | –
Fc1ccc(-c2nn3c(Cn4nnc5ccccc54)nnc3s2)cc1 | 8 µM | – | –
c1ccc2c(c1)nnn2Cc1nnc2sc(-c3ccc4c(c3)OCCO4)nn12 [1-{[6-(2,3-dihydro-1,4-benzodioxin-6-yl)[1,2,4]triazolo[3,4-b][1,3,4]thiadiazol-3-yl]methyl}-1H-1,2,3-benzotriazole] | 40.7 µM | – | –
c1ccc(Cc2nn3c(Cn4nnc5ccccc54)nnc3s2)cc1 [3-(1-benzotriazolylmethyl)-6-(phenylmethyl)-[1,2,4]triazolo[3,4-b][1,3,4]thiadiazole] | 48.8 µM | – | –
